Data reported in patent US20020052323A1, “Quinoline-(C=O)-(multiple amino acids)-leaving group compounds for pharmaceutical compositions and reagents” (priority 2000, published 2002).
Structures can show the parent of a compound that is named as a salt. Peptide text beside a SMILES is read from it. * marks the point of attachment. Cbz = O=C(OCc1ccccc1)*; CH2F = FC*

Columns and labels:
[1] = test system: WEHI 231 cells; experiment: TUNEL analysis of Actinomycin D induced apoptosis, flow cytometry; format: cell-based, murine; set-up: key to rank of result in TUNEL analysis: ***: Best result; **: Second best result; *: Third best result; conditions: for effective concentration in TUNEL test: blind test by TUNEL method, conclusions; for efficacy in TUNEL test, in words: 10 sequences in a blind test
Description: Flow Cytometry measures the percent of the cell population undergoing apoptosis. The effect of the inhibitors is identified as a reduction in the percent of the cell population undergoing apoptosis. Cell Type: WEHI 231 cells, murine immature B cells (suspension) Plate cells at 2×10^5/ml in 10 ml of media (Total 2×10^6 cells) Preincubate caspase inhibitors (Formula I) one hour before inducing apoptosis. […] Actinomycin D (ActD) stock is 1 μg/μl add 10 μl/10 ml)-Treat 4 h Process for Tunel Analysis. (See Table 2 below). […] Cell Processing for Tunel Analysis and Flow Cytometry. Centrifuge cells at 300× g for 5 min and aspirate supernatant. Resuspend cells in 5.0 ml of cold 1× PBS, Spin at 300× g, 5 min. Aspirate supernatant. […] Incubate for 15 min. on ice. […] Aspirate supernatant. […] Aspirate supernatant. […] Aspirate supernatant. Resuspend the cell in 300 μl of cold IX PBS, Transfer to a 1.5 ml tube. […] Store at −20° C. at least 18 hr prior to Tunel Labeling Fixed cells are stable for at least 30 days. Process fixed cells for Tunel using the Apo-BRDU kit from Pharmingen (San Diego, Calif.) following the manufacturer's instructions and analyze by flow cytometry.

[2] = test system: WEHI 231 cells; experiment: TUNEL analysis, inhibitor alone (toxicity control); format: cell-based, murine; conditions: no ActD
Description: Flow Cytometry measures the percent of the cell population undergoing apoptosis. The effect of the inhibitors is identified as a reduction in the percent of the cell population undergoing apoptosis. Cell Type: WEHI 231 cells, murine immature B cells (suspension) Plate cells at 2×10^5/ml in 10 ml of media (Total 2×10^6 cells) Preincubate caspase inhibitors (Formula I) one hour before inducing apoptosis. […] [table] Process fixed cells for Tunel using the Apo-BRDU kit from Pharmingen (San Diego, Calif.) following the manufacturer's instructions and analyze by flow cytometry.

[3] = molecular target: T1, caspase 1 (Homo sapiens, UniProt P29466); experiment: Caspase inhibition assay, AcYVAD-AFC substrate; format: biochemical; conditions: from figure, antilog of log concentration; read-out: IC50 caspase 1
T1 sequence (P29466 120-297 limits assumed): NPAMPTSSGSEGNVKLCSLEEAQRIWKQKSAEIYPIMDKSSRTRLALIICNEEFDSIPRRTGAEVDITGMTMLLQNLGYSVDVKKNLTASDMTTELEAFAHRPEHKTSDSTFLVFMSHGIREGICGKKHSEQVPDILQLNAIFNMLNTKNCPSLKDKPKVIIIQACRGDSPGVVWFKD
T1 sequence (P29466 317-404 limits assumed): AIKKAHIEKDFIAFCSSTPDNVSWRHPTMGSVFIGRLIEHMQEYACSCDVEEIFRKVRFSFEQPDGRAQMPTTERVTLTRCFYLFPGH
Description: The determination of the IC50/μm was performed according to Gary Johnson, 9401 James Avenue, Suite No. 155, Bloomington, Minn. 55431.
Caspase Inhibition Assay:—Caspases are diluted in caspase buffer, 0.1 M HEPES, 10% sucrose 0.1% CHAPS and 10 mM DTT, pH 7.5. Caspases 1, 3, and 8 are used at a concentration of 144 U/well and caspase 9 is used at 4.8 U/well in a 96 well fluorometric plate.
Inhibitors are initially dissolved in DMSO at 10 mg/ml and further dilutions can be prepared in caspase buffer. The inhibitors are generally tested at concentrations ranging from 50 uM to 0.005 uM. These are usually prepared as 2 fold or 2.5 fold decreasing dilutions. The enzyme approximately 144 U in 120 ul caspase buffer is added to 380 ul caspase buffer containing the appropriate concentration on the inhibitor and incubated on ice for 15 min. The reactants 200 ul are then added to a black fluorimetric plate and incubated in the fluorometer at 37° C. for 30 min.
During the incubation period appropriate coumarin substrates are prepared by dilution in DMSO and caspase buffer to provide a 0.417 mM working stock. AcYVAD-AFC is used for caspase 1, AcDEVD-AFC for caspase 3. AcIETD-AFC for caspase 8 and Ac-LEHD-AFC for capsase 9. Twenty five microliters of the stock solution are added to 200 ul of the caspase and inhibitor test solutions to give a final substrate concentration of 0.046 mM.
The fluorometer is set to 400 nm excitation and 505 nm emission. The enzyme-inhibitor-substrate is allowed to incubate at for an additional twenty min. and the response is read as fluorescence units vs inhibitor concentration. The responses are plotted as percent of the maximum response (response in the absence of inhibitor) for each concentration of the inhibitor. The inhibitory activity for each inhibitor is described as the concentration of inhibitor that produces a 50% inhibition of the maximum response (IC50).

[4] = 1 μM inhibitor + ActD, WEHI 231, lower = greater inhibitory activity
[5] = 10 μM inhibitor + ActD, WEHI 231
[6] = 20 μM inhibitor + ActD, WEHI 231
[7] = 30 μM inhibitor + ActD, WEHI 231
[8] = 40 μM inhibitor + ActD, WEHI 231
[9] = 50 μM inhibitor + ActD, WEHI 231
[10] = 100 μM inhibitor + ActD, WEHI 231
[11] = markers in structure designation table

Compound | % non-viable cells [1, 4] [%] | % non-viable cells [1, 5] [%] | % non-viable cells [1, 6] [%] | % non-viable cells [1, 7] [%] | % non-viable cells [1, 8] [%] | % non-viable cells [1, 9] [%] | % non-viable cells [1, 10] [%] | effective concentration in TUNEL test [1] | % non-viable cells, inhibitor alone ([2]; 20 μM Inh alone) [%] | % non-viable cells, inhibitor alone ([2]; 100 μM Inh alone) [%] | efficacy in TUNEL test, in words [1] | rank of result in TUNEL analysis ([1]; Table 3 markers) | rank of result in TUNEL analysis [1, 11] | IC50 [3] [nM]
COC(=O)CC(NC(=O)C(C)NC(=O)C(NC(=O)OCc1ccccc1)C(C)C)C(=O)CF (stereo not drawn) [Z-VAD-FMK, Benzyloxycarbonyl-Val-Ala-Asp (OMe) fluoromethylketone, reference compound] (Cbz-Val-Ala-Asp(OMe)-CH2F; configuration not given here) | 33 | 64 | 17 | 19 | 12 | 8 | 6 | 20 µM | 3 | 7 |  |  |  | 
COC(=O)CC(NC(=O)C(NC(=O)c1ccc2ccccc2n1)C(C)C)C(=O)COc1c(F)cccc1F (centres unmarked) [Inhibitor I^1, Q-Val-Asp(OMe)—CH2—OPh] | 88 | 2 | 3 | 2 | 3 | 2 | 2 | 10 µM | 2 | 53 | most efficacious | I^1*** | Q-Val-Asp(OMe)—CH2—OPh*** | 
hydroxy quinoline-(2-carbonyl)-VD-OPh |  |  |  |  |  |  |  |  |  |  |  |  |  | ~38
Bzl-melatonin-V-D(OMe)—CH2—O—Ph |  |  |  |  |  |  |  |  |  |  |  |  |  | ~170
HQ-Ala-Asp(OMe)—CH2—OPh [Inhibitor E^1] | 29 | 38 | 13 | 25 | 7 | 12 | 10 | 20 µM | 1 | 1 |  |  |  | 
Q-βAla-Asp(OMe)—CH2—OPh [Inhibitor C^1] | 88 | 87 | 72 | 71 | 78 | 68 | 3 | 100 µM | 3 | 4 |  |  |  | 
4HQ-Ala-Asp(OMe)—CH2—OPh [Inhibitor H^1] | 81 | 92 | 88 | 91 | 85 | 82 | 83 | not effective | 3 | 2 |  |  |  | 
COC(=O)CC(NC(=O)CCNC(=O)c1ccc2ccccc2n1)C(=O)CF (centres unmarked) [Inhibitor A^1, Q-βAla-Asp(OMe)-FMK] | 62 | 57 | 42 | 40 | 15 | 32 | 9 | 40 µM | 5 | 5 |  |  |  | 
indole-(2-carbonyl)-3-V-D(OMe)—CH2—O—Ph |  |  |  |  |  |  |  |  |  |  |  |  |  | ~460
COC(=O)CC(NC(=O)C(C)NC(=O)c1ccc2ccccc2n1)C(=O)CF (centres unmarked) [Inhibitor D^1, Q-Ala-Asp(OMe)-FMK] | 88 | 67 | 16 | 2 | 1 | 2 | 1 | 20 µM | 6 | 8 | most efficacious | D^1* | Q-Ala-Asp(OMe)-FMK* | 
MQ-Ala-Asp(OMe)—CH2—OPh [Inhibitor F^1] | 32 | 35 | 47 | 61 | 36 | 20 | 21 | not effective | 5 | 5 |  |  |  | 
COC(=O)CC(NC(=O)[C@@H](NC(=O)[C@@H](N)Cc1c[nH]c2ccccc12)C(C)C)C(=O)COc1ccccc1 (some centres unmarked) [TFA Trp-V-D(OMe)—CH2—O—Ph TFA] |  |  |  |  |  |  |  |  |  |  |  |  |  | ~624
COC(=O)C[C@H](NC(=O)[C@@H](NC(=O)NCCc1c[nH]c2ccc(OC)cc12)C(C)C)C(=O)COc1c(F)cccc1F [melatonin-V-D(OMe)—CH2—O—Ph, 5-methoxytrytamine-carbonyl-Val Asp(OMe)-α-(2-oxy-2,6-Difluorophenyl) Methyl Ketone] |  |  |  |  |  |  |  |  |  |  |  |  |  | ~139
COC(=O)CC(NC(=O)C(C)NC(=O)C(NC(=O)OCc1ccccc1)C(C)C)C(=O)COc1c(F)cccc1F (stereo not drawn) [Inhibitor G^1, 2-Val-Ala-Asp(OMe)—CH2—OPh] | 56 | 62 | 57 | 52 | 62 | 56 | 8 | 100 µM | 1 | 1 |  |  |  | 
